In brackets after ≈: the same amount, converted by molar mass. Several values for one entry are separate records, joined by “and”; a condition that tells them apart may be missing. Equal values may be shown once. Read-outs that look alike come from different tables or passages of the source.
How the values were obtained:
MtNDH-2 = MtNDH-2 (Mycobacterium tuberculosis, UniProt P95160); test: biochemical; parameters: species or system M. tuberculosis; details: MtNDH-2 IC50
MsNDH-2 = MsNDH-2 (Mycolicibacterium smegmatis, UniProt A0QYD6); test: Inhibition of MsNDH-2 (NADH oxidation with menadione, absorbance at 340 nm); type: biochemical, M. smegmatis
Chain of MsNDH-2 (A0QYD6 1-457): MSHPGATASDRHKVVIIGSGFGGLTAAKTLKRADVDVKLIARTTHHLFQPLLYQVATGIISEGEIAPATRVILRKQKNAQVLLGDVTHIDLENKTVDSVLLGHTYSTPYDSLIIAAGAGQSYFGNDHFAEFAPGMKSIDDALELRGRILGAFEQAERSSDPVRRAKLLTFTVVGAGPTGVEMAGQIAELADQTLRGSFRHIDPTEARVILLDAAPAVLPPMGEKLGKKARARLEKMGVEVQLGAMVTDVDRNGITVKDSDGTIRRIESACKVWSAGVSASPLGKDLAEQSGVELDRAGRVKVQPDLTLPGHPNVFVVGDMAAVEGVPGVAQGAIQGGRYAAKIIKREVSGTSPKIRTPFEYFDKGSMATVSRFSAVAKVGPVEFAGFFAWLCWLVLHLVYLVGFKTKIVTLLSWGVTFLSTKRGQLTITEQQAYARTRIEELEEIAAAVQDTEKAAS

[1] = tested on: E. coli (ATCC 25922, wild-type); test: MIC on ESKAPE pathogens, E. coli wild-type; type: cell-based; details: Escherichia coli
[2] = tested on: E. coli (ΔtolC efflux-defective mutant, isogenic to ATCC 25922); test: microbe, parasite or virus in culture; type: cell-based; details: Escherichia coli, ATCC25922, read-out: MIC Ec ΔtolC
[3] = tested on: E. coli (D22, lpxC mutant, drug-hypersensitive); test: microbe, parasite or virus in culture; type: cell-based; details: Escherichia coli, read-out: MIC Ec D22
[4] = tested on: P. aeruginosa (PAO1, wild-type); test: MIC on ESKAPE pathogens, P. aeruginosa wild-type; type: cell-based; details: Pseudomonas aeruginosa, PAO1, P. aeruginosa PAO1, wild-type; read-out: MIC Pa WT
[5] = tested on: P. aeruginosa (PAO750 efflux-defective mutant, isogenic to PAO1); test: microbe, parasite or virus in culture; type: cell-based; details: Pseudomonas aeruginosa, PAO1, read-out: MIC Pa efflux
[6] = tested on: A. baumannii (ATCC 19606, wild-type); test: MIC on ESKAPE pathogens, A. baumannii; type: cell-based; details: Acinetobacter baumannii
[7] = tested on: S. aureus (ATCC 29213, wild-type); test: MIC on ESKAPE pathogens, S. aureus; type: cell-based; details: Staphylococcus aureus, ATCC29213
[8] = tested on: M. tuberculosis strain H37Rv (ATCC 25618); test: MIC on M. tuberculosis by resazurin reduction microplate assay (REMA); type: cell-based; details: Mycobacterium tuberculosis, M. tuberculosis H37Rv, read-out: MIC Mtb
[9] = tested on: K. pneumonia (ATCC 13833, wild-type); test: MIC on ESKAPE pathogens, K. pneumoniae
[10] = Cytotoxicity on the MRC-5 cell line (resazurin); type: cell-based; details: human, MRC-5SV2 cells, MRC-5SV2, 3 days
Method: MRC-5SV2 cells were cultured in Earl’s MEM + 5% FCSi. Assays were performed in 96-well microtiter plates, each well containing about 10^4 cells/well. After 3 days of incubation with or without compounds, cell viability was assessed fluorimetrically after the addition of resazurin (λex 550 nm, λem 590 nm). The results were expressed as % reduction in cell growth/viability compared to untreated control wells and CC50 was determined. Testing/retesting strategy was as described above for HepG2 cells.

[11] = 95% confidence interval in parentheses, 50 nM enzyme, 50 μM menadione, >100: no significant inhibition at 100 μM
[12] = same IC50 given in μg/mL to assist comparisons with MICs
[13] = ATCC25922, E. coli ATCC 25922, wild-type, read-out: MIC Ec WT
[14] = ATCC19606, A. baumannii ATCC 19606, wild-type, read-out: MIC Ab WT

Chain of MtNDH-2 (P95160 2-463, added parts left off): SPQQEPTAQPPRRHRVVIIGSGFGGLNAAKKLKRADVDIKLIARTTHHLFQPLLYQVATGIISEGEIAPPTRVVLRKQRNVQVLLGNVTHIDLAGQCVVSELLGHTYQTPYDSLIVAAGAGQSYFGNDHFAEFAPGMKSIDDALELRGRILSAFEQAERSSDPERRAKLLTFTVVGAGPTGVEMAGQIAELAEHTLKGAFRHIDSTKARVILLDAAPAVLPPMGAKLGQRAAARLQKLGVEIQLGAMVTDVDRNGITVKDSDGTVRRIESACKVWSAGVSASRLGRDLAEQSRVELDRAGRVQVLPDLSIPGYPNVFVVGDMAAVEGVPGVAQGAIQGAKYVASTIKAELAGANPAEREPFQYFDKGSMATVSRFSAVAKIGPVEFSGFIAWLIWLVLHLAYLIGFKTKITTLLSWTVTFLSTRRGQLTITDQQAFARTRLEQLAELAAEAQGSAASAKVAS

## CN1CCN(c2cc(Nc3ccc4nc(-c5ccc(F)cc5)cc(N)c4c3)nc(N)n2)CC1 [Compound 8c, N^6-(2-Amino-6-(4-methylpiperazin-1-yl)pyrimidin-4-yl)-2-(4-fluorophenyl)quinoline-4,6-diamine]
MtNDH-2
  IC50: 6.2 µM and 6.3 µM
MsNDH-2; [11]
  IC50: 40 µM
MsNDH-2; [12]
  IC50: 40.5 µM
[1]; [13]
  MIC: 128 µg/mL (≈ 288 µM)
[2]
  MIC: 16 µg/mL (≈ 36 µM)
[3]
  MIC: 16 µg/mL (≈ 36 µM)
[4]
  MIC: 64 µg/mL (≈ 144 µM)
[5]
  MIC: 16 µg/mL (≈ 36 µM)
[6]; [14]
  MIC: > 128 µg/mL
[7]
  MIC: 128 µg/mL (≈ 288 µM)
[8]
  MIC: 15.6 µg/mL (≈ 35.1 µM)
[9]
  MIC Kp WT: >128 µg/mL

## CC(C)N1CCN(c2cc(Nc3ccc4nc(-c5ccc(F)cc5)cc(N)c4c3)nc(N)n2)CC1 [Compound 8d, N^6-(2-Amino-6-(4-isopropylpiperazin-1-yl)pyrimidin-4-yl)-2-(4-fluorophenyl)quinoline-4,6-diamine]
MtNDH-2
  IC50: 3.6 µM
MsNDH-2; [11]
  IC50: 19 µM
MsNDH-2; [12]
  IC50: 18.8 µM
[1]; [13]
  MIC: 64 µg/mL (≈ 135 µM)
[2]
  MIC: 32 µg/mL (≈ 67.7 µM)
[3]
  MIC: 32 µg/mL (≈ 67.7 µM)
[4]
  MIC: 64 µg/mL (≈ 135 µM)
[5]
  MIC: 32 µg/mL (≈ 67.7 µM)
[6]; [14]
  MIC: > 128 µg/mL
[7]
  MIC: 128 µg/mL (≈ 271 µM)
[8]
  MIC: 7.6 µg/mL (≈ 16.1 µM)
[9]
  MIC Kp WT: 128 µg/mL (≈ 271 µM)

## Nc1nc(Nc2ccc3nc(-c4ccc(F)cc4)cc(N)c3c2)cc(N2CCN(CCO)CC2)n1 [Compound 8e, 2-(4-(2-Amino-6-((4-amino-2-(4-fluorophenyl)quinolin-6-yl)amino)pyrimidin-4-yl)piperazin-1-yl)ethan-1-ol]
MtNDH-2
  IC50: 6.6 µM and 6.53 µM
MsNDH-2; [11]
  IC50: > 100 µM
MsNDH-2; [12]
  IC50: > 99 µM
[1]; ATCC25922, read-out: MIC Ec WT
  MIC: > 128 µg/mL
[2]
  MIC: 32 µg/mL (≈ 67.4 µM)
[3]
  MIC: 32 µg/mL (≈ 67.4 µM)
[4]
  MIC: 64 µg/mL (≈ 135 µM)
[5]
  MIC: > 128 µg/mL
[6]; ATCC19606, read-out: MIC Ab WT
  MIC: > 128 µg/mL
[7]
  MIC: 128 µg/mL (≈ 270 µM)
[8]
  MIC: 16 µg/mL (≈ 33.7 µM)
[9]
  MIC Kp WT: 128 µg/mL (≈ 270 µM)

## CC(C)(C)OC(=O)NC1CCN(c2cc(Nc3ccc4nc(-c5ccc(F)cc5)cc(N)c4c3)nc(N)n2)CC1 [Compound 8i, tert-Butyl (1-(2-Amino-6-((4-amino-2-(4-fluorophenyl)quinolin-6-yl)amino)pyrimidin-4-yl)piperidin-4-yl)carbamate]
MtNDH-2
  IC50: 0.441 µM
MsNDH-2; [11]
  IC50: 0.95 µM
MsNDH-2; [12]
  IC50: 0.918 µM
[1]; [13]
  MIC: 64 µg/mL (≈ 118 µM)
[2]
  MIC: 8 µg/mL (≈ 14.7 µM)
[3]
  MIC: 4 µg/mL (≈ 7.34 µM)
[4]
  MIC: 64 µg/mL (≈ 118 µM)
[5]
  MIC: 32 µg/mL (≈ 58.8 µM)
[6]; [14]
  MIC: 8 µg/mL (≈ 14.7 µM)
[7]
  MIC: 1 µg/mL (≈ 1.84 µM)
[8]
  MIC: 6.1 µg/mL (≈ 11.2 µM)
[10]; resazurin
  IC50 at 3 days: 1.3 µM
[10]; value in parentheses
  IC50 at 3 days: 0.7 µg/mL
[9]
  MIC Kp WT: 64 µg/mL (≈ 118 µM)

## CN(C)c1cc(Nc2ccc3nc(-c4ccc(F)cc4)cc(N)c3c2)nc(N)n1 [Compound 8k, N^4-(4-Amino-2-(4-fluorophenyl)quinolin-6-yl)-N^6,N^6-dimethylpyrimidine-2,4,6-triamine]
MtNDH-2
  IC50: 1.3 µM and 1.31 µM
MsNDH-2; [11]
  IC50: 2.7 µM
MsNDH-2; [12]
  IC50: 2.82 µM
[1]; [13]
  MIC: 32 µg/mL (≈ 82.2 µM)
[2]
  MIC: 2 µg/mL (≈ 5.14 µM)
[3]
  MIC: 8 µg/mL (≈ 20.5 µM)
[4]
  MIC: > 64 µg/mL
[5]
  MIC: 4 µg/mL (≈ 10.3 µM)
[6]; [14]
  MIC: 8 µg/mL (≈ 20.5 µM)
[7]
  MIC: 8 µg/mL (≈ 20.5 µM)
[8]
  MIC: 5.9 µg/mL (≈ 15.2 µM)
[10]; resazurin
  IC50 at 3 days: 1.8 µM
[10]; value in parentheses
  IC50 at 3 days: 0.7 µg/mL
[9]
  MIC Kp WT: 64 µg/mL (≈ 164 µM)

## CN(CCO)c1cc(Nc2ccc3nc(-c4ccc(F)cc4)cc(N)c3c2)nc(N)n1 [Compound 8l, 2-((2-Amino-6-((4-amino-2-(4-fluorophenyl)quinolin-6-yl)amino)pyrimidin-4-yl)(methyl)amino)ethan-1-ol]
MtNDH-2
  IC50: 11 µM and 11.4 µM
MsNDH-2; [11]
  IC50: 16 µM
MsNDH-2; [12]
  IC50: 16.2 µM
[1]; [13]
  MIC: 16 µg/mL (≈ 38.1 µM)
[2]
  MIC: 8 µg/mL (≈ 19.1 µM)
[3]
  MIC: 8 µg/mL (≈ 19.1 µM)
[4]
  MIC: > 64 µg/mL
[5]
  MIC: > 64 µg/mL
[6]; [14]
  MIC: > 64 µg/mL
[7]
  MIC: 32 µg/mL (≈ 76.3 µM)
[8]
  MIC: 9.8 µg/mL (≈ 23.4 µM)
[10]; resazurin
  IC50 at 3 days: 7.8 µM
[10]; value in parentheses
  IC50 at 3 days: 3.3 µg/mL
[9]
  MIC Kp WT: >64 µg/mL

## Nc1nc(Nc2ccc3nc(-c4ccc(F)cc4)cc(N)c3c2)cc(N2CCC(CO)CC2)n1 [Compound 8n, (1-(2-Amino-6-((4-amino-2-(4-fluorophenyl)quinolin-6-yl)amino)pyrimidin-4-yl)piperidin-4-yl)methanol]
MtNDH-2
  IC50: 4.1 µM and 4.13 µM
[1]; [13]
  MIC: 64 µg/mL (≈ 139 µM)
[2]
  MIC: 16 µg/mL (≈ 34.8 µM)
[3]
  MIC: 32 µg/mL (≈ 69.6 µM)
[4]
  MIC: > 64 µg/mL
[5]
  MIC: 64 µg/mL (≈ 139 µM)
[6]; [14]
  MIC: 64 µg/mL (≈ 139 µM)
[7]
  MIC: 32 µg/mL (≈ 69.6 µM)
[8]
  MIC: 17.7 µg/mL (≈ 38.5 µM)
[10]; resazurin
  IC50 at 3 days: 3.7 µM
[10]; value in parentheses
  IC50 at 3 days: 1.7 µg/mL
[9]
  MIC Kp WT: >64 µg/mL

## CN1CCCC(COc2cc(Nc3ccc4nc(-c5ccc(F)cc5)cc(N)c4c3)nc(N)n2)C1 (stereo not drawn) [Compound 9c, N^6-(2-Amino-6-((1-methylpiperidin-3-yl)methoxy)pyrimidin-4-yl)-2-(4-fluorophenyl)quinoline-4,6-diamine]
MtNDH-2
  IC50: 3.3 µM and 3.38 µM
MsNDH-2; [11]
  IC50: 14 µM
MsNDH-2; [12]
  IC50: 13.7 µM
[1]; [13]
  MIC: 64 µg/mL (≈ 135 µM)
[2]
  MIC: 16 µg/mL (≈ 33.8 µM)
[3]
  MIC: 32 µg/mL (≈ 67.6 µM)
[4]
  MIC: > 64 µg/mL
[5]
  MIC: 16 µg/mL (≈ 33.8 µM)
[6]; [14]
  MIC: > 64 µg/mL
[7]
  MIC: 64 µg/mL (≈ 135 µM)
[8]
  MIC: 37.5 µg/mL (≈ 79.2 µM)
[9]
  MIC Kp WT: >64 µg/mL

## Nc1nc(Nc2ccc3nc(-c4ccc(F)cc4)cc(N)c3c2)cc(=O)[nH]1 [Compound 12, 2-Amino-6-((4-amino-2-(4-fluorophenyl)quinolin-6-yl)amino)pyrimidin-4(3H)-one]
MtNDH-2
  IC50: 1.5 µM and 1.49 µM
MsNDH-2; [11]
  IC50: > 20 µM
MsNDH-2; [12]
  IC50: > 19.9 µM
[1]; [13]
  MIC: 32 µg/mL (≈ 88.3 µM)
[2]
  MIC: 16 µg/mL (≈ 44.2 µM)
[3]
  MIC: 16 µg/mL (≈ 44.2 µM)
[4]
  MIC: > 64 µg/mL
[5]
  MIC: 32 µg/mL (≈ 88.3 µM)
[6]; [14]
  MIC: 32 µg/mL (≈ 88.3 µM)
[7]
  MIC: 32 µg/mL (≈ 88.3 µM)
[8]
  MIC: 9.2 µg/mL (≈ 25.4 µM)
[9]
  MIC Kp WT: 32 µg/mL (≈ 88.3 µM)

## Nc1cc(-c2ccc(F)cc2)nc2ccc(Nc3cc(Cl)ncn3)cc12 [Compound 14, N^6-(6-Chloropyrimidin-4-yl)-2-(4-fluorophenyl)quinoline-4,6-diamine]
MtNDH-2
  IC50: 1.5 µM
MsNDH-2; [11]
  IC50: 5.1 µM
MsNDH-2; [12]
  IC50: 5.19 µM
[1]; [13]
  MIC: > 64 µg/mL
[2]
  MIC: > 64 µg/mL
[3]
  MIC: 64 µg/mL (≈ 175 µM)
[4]
  MIC: > 64 µg/mL
[5]
  MIC: > 64 µg/mL
[6]; [14]
  MIC: > 64 µg/mL
[7]
  MIC: 64 µg/mL (≈ 175 µM)
[8]
  MIC: 4.8 µg/mL (≈ 13.1 µM)
[9]
  MIC Kp WT: >64 µg/mL
